In patent publication US10030064B2, “Mammalian cell culture processes for protein production” (priority 2009, dated 2018):

Legend:
Format in all cases: cell-based, Chinese hamster
sialidase = experiment: Sialidase activity in culture supernatant (Amplex Red Neuraminidase assay); details: 1 μM DEX from day 2, absorbance at 560 nm
Description: Sialidase activity was analyzed using the Amplex Red Neuraminidase (Sialidase) Assay Kit (Invitrogen, Carlsbad, Calif.). Briefly, neuraminidase in the sample is used to desialylate fetuin. This assay utilizes Amplex Red to detect H2O2 generated by oxidation of the desialylated galactose residues on the fetuin by galactose oxidase. The H2O2, in the presence of HRP, reacts stoichiometrically with Amplex Red reagent to generate the red-fluorescent oxidation product, resorufin 5, which is then analyzed either fluorometrically or spectrophotometrically. In each assay, 50 μL of working solution (100 μM Amplex Red, 0.2 U/mL HRP, 4 U/mL galactose oxidase and 500 μg/mL fetuin) was added into each microplate well containing 50 μL of diluted cell culture supernatant. After 30 minutes incubation at 37° C., samples were analyzed for absorbance at 560 nm using a microplate reader.
As shown in FIG. 2A and FIG. 2B, increased sialidase activity was associated with the decreased cell viabilities in both the DEX-treated and untreated cultures.

[1] = system: CHO cells secreting an IgG-fusion protein; experiment: Shake flask CHO culture: SEC-HPLC of high molecular weight (HMW) species in secreted IgG-fusion protein
Description: The CHO cell line used in this study was originally subcloned from DG44 parental cells and cultured in a protein-free proprietary growth medium. The host cells were genetically engineered to secrete an IgG-fusion protein under the control of CMV promoter.
The experiments were carried out in 250-mL shake flasks (VWR international) with starting volumes of 100 mL and initial cell densities of 6×10^5 cells/mL. Shake flasks were placed on a shaker platform (VWR international) at 150 rpm rotating speed. Cells were cultured under standard humidified condition at 37° C. and 6% CO2, for a ten-day duration with daily pH adjustment using 1M sodium carbonate, and fed with glucose and glutamine every two days in order to maintain them at certain level. Cell density, cell viability and substrates/metabolites were offline-analyzed by an automated cell counting system Cedex (Innovatis AG, Bielefeld, Germany) and a Bioprofile Analyzer 400 (Nova Biomedical Corporation, Waltham, Mass.). Supernatant from each culture harvest was collected for SEC analysis.
The main components of HMW species were dimers and trimers formed covalently or non-covalently and categorically considered to be protein aggregates.

CHO cells [2] = experiment: Shake flask CHO culture in serum free medium: viable cell density, viability, growth rate, productivity (Example 3)
Description: The CHO cell line used in this study was subcloned from DG44 parental cells and cultured in a proprietary chemically-defined growth medium.
The experiments were carried out in 250-mL shake flasks (VWR international) with starting volumes of 100 mL and initial cell densities of 6×10^5 cells/mL. The cultures were placed on a shaker platform (VWR international) at 150 rpm and maintained at 37° C. and 6% CO2 for ten days. The cultures were sampled daily and the pH adjustment using 1M sodium carbonate, and fed with glucose and glutamine every two days in order to maintain them at certain levels. Cell density and viability were measured off-line a Bioprofile Analyzer 400 (Nova Biomedical Corporation, Waltham, Mass.).
(§1) The eluted protein was quantified using a 10-level standard curve.

CHO cells [3] = experiment: Fed-batch 10-L bioreactor CHO culture: VCD, viability, titer
Description: Bioreactor experiments were performed in 10-L bioreactors (Sartorius Stedim Biotech, France) with starting working volumes of 5 L. Agitation, pH and dissolved oxygen were controlled at 150 rpm, 7.05, and 50% air saturation, respectively. Temperature was initially controlled at 37° C. and was shifted to lower temperature during the culture to extend the culture viability. The bioreactors were operated in a batch fed mode and were fed daily starting on day 3 with the proprietary feed medium to maintain adequate concentrations for glucose and other nutrients. Samples were taken during the cell culture process and analyzed for cell density, cell viability, substrates and metabolites.
as §1
Different from shake flask runs, bioreactor runs were extended to 14 days, the culture temperature was shifted to a lower temperature during the late exponential phase of the culture, and a proprietary feeding medium was used instead of feeding only glucose and glutamine.

CHO cells [4] = experiment: Fed-batch 7-L, 500-L and 5000-L bioreactors with dexamethasone in the feed medium (Example 5)
Description: The CHO cell line used in this study was subcloned from DG44 parental cells and cultured in a proprietary growth medium.
Bioreactor experiments were performed in 7-L, 500-L and 5000-L bioreactors with starting working volumes around 3 L, 300 L and 3000 L, respectively. All the bioreactor runs started at 37° C. and shifted to lower temperature when cells entered production phase in order to extend the cell culture period. pH, and dissolved oxygen were maintained at 7.05, and 50% air saturation. Agitation rates for 7-L, 500-L and 5000-L scales are 180, 75 and 60 rpm respectively. All the bioreactor experiments were conducted in a fed batch mode with daily feeding of a protein-free medium in order to maintain the glucose and other nutrients at certain levels. […] Samples were taken during the cell culture process and analyzed for cell density, cell viability, substrates and metabolites.
The titer, sialic acid and HMW content assay were performed as described in the previous examples.

[5] = 10 μM DEX added two days after inoculation
[6] = treatment concentration 0.1 μM, added two days after inoculation
[7] = treatment concentration 1 μM, added two days after inoculation
[8] = treatment concentration 10 μM, added two days after inoculation
[9] = day 14, 1 μM DEX added on day 2
[10] = day 14, 1 μM DEX added on day 7

With `C[C@@H]1C[C@H]2[C@@H]3CCC4=CC(=O)C=C[C@]4(C)[C@@]3(F)[C@@H](O)C[C@]2(C)[C@@]1(O)C(=O)CO` [DEX, dexamethasone] as the molecule, how does the “absorbance measurement of sialidase activity” value (sialidase; day 4) read?
The value was 0.006±0.002.

What about the “absorbance measurement of sialidase activity” value (sialidase; day 10) of the same molecule?
The value was 0.024±0.003.

What about the “decrease of percentage of HMW species” value ([1]; 0.1 μM DEX alone) of the same molecule?
Its value is “approximately 17%”.

And the “reduction of protein aggregation (percentage of HMW species)” value ([1]; 1 μM DEX added day 2, supernatant day 10, vs control)?
Its value is 15%.

What about the “final cell viability (day 10)” value (CHO cells [2]; 0.01 μM DEX added two days after inoculation) of the same molecule?
Its value is 53.1%.

What about the “percent increase of cell viability induced by DEX” value (“percent increase” below) (CHO cells [2]; 0.1 μM DEX, with 1 μM RU-486) of the same molecule?
Its value is 4.7%.

And the “percent increase” value (CHO cells [2]; 0.1 μM DEX, without RU-486)?
Its value is 30.5%.

What about the “maximum specific productivity (normalized)” value (CHO cells [2]; 1 μM DEX added day 2) of the same molecule?
The value was 7.0±0.6 ×10^−9.

And the normalized volumetric productivity (CHO cells [2]; 1 μM DEX added day 2, same for all cultures)?
The normalized volumetric productivity was 6.5.

What about the “reduction in cell growth rates compared to control” value (CHO cells [2]; 1 μM DEX added day 2, the day after DEX addition) of the same molecule?
Its value is about 30%.

And the “viability on day 10” value (CHO cells [2]; 1 μM DEX added on day 0)?
Its value is 63%.

What about the “viability on day 10” value (CHO cells [2]; 1 μM DEX added on day 2) of the same molecule?
Its value is 68%.

And the “viability on day 10” value (CHO cells [2]; 1 μM DEX added on day 4)?
The value was 72%.

What about the “viability on day 10” value (CHO cells [2]; 1 μM DEX added on day 6) of the same molecule?
Its value is 74%.

What about the “percent increase” value (CHO cells [2]; 1 μM DEX, with 1 μM RU-486) of the same molecule?
The value was 5.7%.

And the “percent increase” value (CHO cells [2]; 1 μM DEX, without RU-486)?
Its value is 32.6%.

And the “Peak VCD” value (CHO cells [2]; [5])?
Its value is 6.5 ×10^6 cell/mL.

What about the “final cell viability (day 10)” value (CHO cells [2]; [5]) of the same molecule?
Its value is 64.0%.

And the “Final VCD” value (CHO cells [2]; [6])?
Its value is 7.64 ×10^6 cells/mL.

And the “Peak VCD” value (CHO cells [2]; [6])?
The value was 7.99 ×10^6 cells/mL.

What about the “Viability (final, day 10)” value (CHO cells [2]; [6]) of the same molecule?
The value was 72.3%.

What about the “Final VCD” value (CHO cells [2]; [7]) of the same molecule?
Its value is 8.40 ×10^6 cells/mL.

What about the “Peak VCD” value (CHO cells [2]; [7]) of the same molecule?
Its value is 9.02 ×10^6 cells/mL.

What about the “Viability (final, day 10)” value (CHO cells [2]; [7]) of the same molecule?
The value was 75.8%.

And the “Final VCD” value (CHO cells [2]; [8])?
Its value is 7.38 ×10^6 cells/mL.

And the “Peak VCD” value (CHO cells [2]; [8])?
Its value is 7.49 ×10^6 cells/mL.

And the “Viability (final, day 10)” value (CHO cells [2]; [8])?
The value was 82.3%.

What about the maximum cell density (CHO cells [3]; 1 μM DEX added on either day 2 or day 7, day 8) of the same molecule?
Its maximum cell density is “approximately 8.3 ×10^6 cell/mL”.

And the Cell viability (CHO cells [3]; day 6, all conditions)?
The Cell viability was 94%.

And the Normalized protein titer (CHO cells [3]; day 7, prior to the maximum VCD)?
The Normalized protein titer was “approximately 5.5”.

What about the “increase of day 14 normalized titer vs without DEX” value (CHO cells [3]; day 14) of the same molecule?
Its value is 20%.

What about the “Final VCD” value (CHO cells [3]; [9]) of the same molecule?
Its value is 4.1 ×10^6 cell/mL.

What about the percent viability (CHO cells [3]; [9]) of the same molecule?
The percent viability was 55%.

What about the “Final VCD” value (CHO cells [3]; [10]) of the same molecule?
Its value is 3.5 ×10^6 cell/mL.

What about the percent viability (CHO cells [3]; [10]) of the same molecule?
The percent viability was 39%.

What about the harvest normalized titer (CHO cells [3]; day 14, both bioreactors with DEX) of the same molecule?
The harvest normalized titer was 12.5.

And the “Day 14 average viability” value (CHO cells [4]; 7-L scale)?
The value was 88%.

And the “Day 14 titer (normalized value)” value (CHO cells [4]; 7-L scale)?
Its value is 13.2.

And the “Peak sialic acid level (normalized value)” value (CHO cells [4]; 7-L scale)?
The value was 16.0.

What about the “Day 14 average viability” value (CHO cells [4]; 500-L scale) of the same molecule?
The value was 84%.

And the “Day 14 titer (normalized value)” value (CHO cells [4]; 500-L scale)?
The value was 11.6.

What about the “Peak sialic acid level (normalized value)” value (CHO cells [4]; 500-L scale) of the same molecule?
Its value is 18.0.

And the “Day 14 average viability” value (CHO cells [4]; 5000-L scale)?
Its value is 91%.

And the “Day 14 titer (normalized value)” value (CHO cells [4]; 5000-L scale)?
Its value is 13.6.

And the “Peak sialic acid level (normalized value)” value (CHO cells [4]; 5000-L scale)?
Its value is 19.0.

And the “drop of sialic acid by the end of the runs” value (CHO cells [4]; all scales)?
Its value is “approximately 2.6 units”.
